Assay results as given in publication PMC5268466, “Monofluorophosphate Blocks Internal Polysaccharide Synthesis in Streptococcus mutans” (PLoS ONE, 2017).

Target: T1, S. mutans ADP-Glc PPase (GlgC/GlgD) (Streptococcus mutans, UniProt M9TIK1)
T1 sequence (M9TIK1 1-381): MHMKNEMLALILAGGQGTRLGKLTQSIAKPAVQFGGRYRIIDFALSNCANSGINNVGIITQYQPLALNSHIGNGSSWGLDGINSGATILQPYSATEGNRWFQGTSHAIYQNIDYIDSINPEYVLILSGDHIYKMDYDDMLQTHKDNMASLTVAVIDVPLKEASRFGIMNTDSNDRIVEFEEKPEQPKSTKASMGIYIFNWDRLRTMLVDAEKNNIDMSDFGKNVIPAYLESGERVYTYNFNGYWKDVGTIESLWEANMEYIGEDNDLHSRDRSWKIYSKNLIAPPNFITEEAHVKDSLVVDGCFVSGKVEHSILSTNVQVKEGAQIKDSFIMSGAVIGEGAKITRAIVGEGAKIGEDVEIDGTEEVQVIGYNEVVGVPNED
T1 sequence (M9TG57 1-377 partner): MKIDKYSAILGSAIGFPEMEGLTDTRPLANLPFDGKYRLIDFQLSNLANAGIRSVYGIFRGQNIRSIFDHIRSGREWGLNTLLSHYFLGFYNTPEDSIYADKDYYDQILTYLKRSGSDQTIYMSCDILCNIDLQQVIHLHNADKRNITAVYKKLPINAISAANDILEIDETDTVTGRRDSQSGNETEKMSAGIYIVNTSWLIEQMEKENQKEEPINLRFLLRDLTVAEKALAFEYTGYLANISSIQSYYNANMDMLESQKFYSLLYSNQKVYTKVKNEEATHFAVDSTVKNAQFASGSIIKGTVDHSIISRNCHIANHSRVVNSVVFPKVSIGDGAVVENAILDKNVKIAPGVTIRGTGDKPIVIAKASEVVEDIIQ
Conditions: 2500 µM, pH 8.0, 37 C, allosteric

## O=P(O)(O)O [Pi, orthophosphate]
  No Fru-1,6-bisP / Activity (% remaining activity): 15 ± 2%
